Measured values: US7026280B2, “LV V-Haemorphin-7 neuroactive peptide and methods of use” (Howard Florey Institute of Experimental Physiology, priority 1996, dated 2006)
Like-named read-outs stand apart in the source and are kept apart here. Where a SMILES comes first, the peptide text is derived from it. Side-chain parts run from the residue outwards. [ ]: non-standard residue; d: D form. The star is where a group is joined. Nicotinoyl = O=C(c1cccnc1)*; Nle = CCCC[C@H](N)C(=O)O; Cbz = O=C(OCc1ccccc1)*

Legend:
[1] = system: embryonic chicken sympathetic neurons
[2] = system: scopolamine-induced amnesia
[3] = system: scopolamine-induced amnesia; conditions: rat, in vivo
AT4 receptor [4] = assay: Competition for [125I]Ang IV binding on prefrontal cortical brain sections (in vitro receptor autoradiography); set-up: species or system Macaca fascicularis; conditions: for IC50: monkey prefrontal cortical sections, read-out: IC50 for competing for [125I]Ang IV binding; for Competition for [125I]Ang IV binding: even at concentrations of 10 mM
AT4 receptor [5] = biological target: T1, AT4 receptor (Ovis aries, UniProt A0ACI6PQ17); assay: Competition for [125I]LVV-haemorphin-7 binding to sheep cerebellar cortical membranes; conditions: read-out: IC50 for competing for 125I-LVV-haemorphin-7 binding
T1 sequence (A0ACI6PQ17 1-1050): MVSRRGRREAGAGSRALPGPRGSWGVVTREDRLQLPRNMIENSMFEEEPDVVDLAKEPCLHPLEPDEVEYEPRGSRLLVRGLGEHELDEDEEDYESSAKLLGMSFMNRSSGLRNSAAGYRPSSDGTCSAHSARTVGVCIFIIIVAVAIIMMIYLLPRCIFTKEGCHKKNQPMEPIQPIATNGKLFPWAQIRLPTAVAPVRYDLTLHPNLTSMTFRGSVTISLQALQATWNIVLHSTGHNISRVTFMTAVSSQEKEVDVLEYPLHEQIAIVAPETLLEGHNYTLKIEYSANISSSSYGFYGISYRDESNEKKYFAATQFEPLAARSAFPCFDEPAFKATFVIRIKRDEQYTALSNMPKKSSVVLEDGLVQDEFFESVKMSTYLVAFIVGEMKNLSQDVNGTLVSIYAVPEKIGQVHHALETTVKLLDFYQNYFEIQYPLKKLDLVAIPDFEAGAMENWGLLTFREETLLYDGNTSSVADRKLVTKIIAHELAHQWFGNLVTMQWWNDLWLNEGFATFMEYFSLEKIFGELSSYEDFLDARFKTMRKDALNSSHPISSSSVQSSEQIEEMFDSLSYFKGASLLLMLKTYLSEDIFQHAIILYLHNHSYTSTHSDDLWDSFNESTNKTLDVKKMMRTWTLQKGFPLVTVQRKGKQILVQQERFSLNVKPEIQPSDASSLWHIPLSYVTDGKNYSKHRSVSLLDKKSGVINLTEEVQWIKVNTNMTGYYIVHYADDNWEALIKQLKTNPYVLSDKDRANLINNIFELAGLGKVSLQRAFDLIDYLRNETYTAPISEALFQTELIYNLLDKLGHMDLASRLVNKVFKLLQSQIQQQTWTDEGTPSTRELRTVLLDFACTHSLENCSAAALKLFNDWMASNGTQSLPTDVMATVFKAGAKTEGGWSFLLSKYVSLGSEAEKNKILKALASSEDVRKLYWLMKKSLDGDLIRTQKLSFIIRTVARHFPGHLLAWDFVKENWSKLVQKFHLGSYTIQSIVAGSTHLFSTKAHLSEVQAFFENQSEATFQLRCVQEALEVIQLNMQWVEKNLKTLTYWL

AT4 receptor [6] = biological target: T1, AT4 receptor; assay: Competition for [125I]Ang IV binding to sheep cerebellar cortical membranes
AT4 receptor sites = assay: Cross-displacement of [125I]LVV-haemorphin-7 and [125I]Ang IV binding on sheep hindbrain sections
Protocol: Sheep hindbrain sections were used to compare the distribution of ^125I-LVV-haemorphin-7 binding and AT4 receptor sites. Sections at 10 μm thickness were equilibrated to 22° C. (30 min), and then preincubated for 30 min in an isotonic buffer containing 50 mM Tris, 150 mM sodium chloride, 5 mM EDTA, 100 μM phenylmethylsulfonyl fluoride, 20 μM bestatin and 0.1% bovine serum albumin, pH 7.4, before a further 2 h incubation in the same buffer containing 2.84 μCi of [^125I]LVV-haemorphin-7 or [125I]Ang IV (approximately 140 pM). The binding of the radioligands was cross-displaced with either 1 μM unlabelled LVV-haemorphin-7 or Ang IV. After incubation, the sections were given three 2 min washes in buffer at 4° C., and exposed to X-ray film for 14 to 28 d.

[7] = biological target: Ang IV binding site (AT4 receptor) (Homo sapiens, UniProt Q9UIQ6); conditions: literature; cited from earlier work
Ang IV binding site (AT4 receptor), sequence (Q9UIQ6 whole entry): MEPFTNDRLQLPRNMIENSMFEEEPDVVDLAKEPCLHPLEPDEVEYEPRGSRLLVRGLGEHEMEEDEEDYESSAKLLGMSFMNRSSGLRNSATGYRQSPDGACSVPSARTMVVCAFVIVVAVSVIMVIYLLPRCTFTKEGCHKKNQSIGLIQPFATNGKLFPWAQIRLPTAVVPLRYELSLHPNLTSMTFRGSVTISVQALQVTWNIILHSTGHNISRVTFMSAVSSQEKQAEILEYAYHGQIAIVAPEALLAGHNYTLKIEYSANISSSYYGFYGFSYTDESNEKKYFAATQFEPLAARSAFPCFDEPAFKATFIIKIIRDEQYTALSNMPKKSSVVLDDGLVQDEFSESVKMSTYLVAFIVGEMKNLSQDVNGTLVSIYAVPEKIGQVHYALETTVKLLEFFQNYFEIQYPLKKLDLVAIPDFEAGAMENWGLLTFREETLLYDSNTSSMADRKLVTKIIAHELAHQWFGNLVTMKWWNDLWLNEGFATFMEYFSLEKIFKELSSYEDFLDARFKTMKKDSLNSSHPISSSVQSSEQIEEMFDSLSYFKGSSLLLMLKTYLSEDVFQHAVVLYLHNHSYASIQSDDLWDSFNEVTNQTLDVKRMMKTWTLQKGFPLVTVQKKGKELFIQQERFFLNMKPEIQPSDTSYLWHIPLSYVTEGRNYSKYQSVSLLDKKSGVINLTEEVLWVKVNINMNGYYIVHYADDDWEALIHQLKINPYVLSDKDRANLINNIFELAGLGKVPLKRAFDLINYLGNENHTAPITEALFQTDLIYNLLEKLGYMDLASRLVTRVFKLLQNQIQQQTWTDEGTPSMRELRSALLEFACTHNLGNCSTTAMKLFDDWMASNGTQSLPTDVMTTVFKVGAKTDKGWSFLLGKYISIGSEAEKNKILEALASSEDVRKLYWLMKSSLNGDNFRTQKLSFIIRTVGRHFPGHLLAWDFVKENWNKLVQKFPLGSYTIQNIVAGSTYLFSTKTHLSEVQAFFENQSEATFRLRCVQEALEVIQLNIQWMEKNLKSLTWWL

[8] = biological target: T2, embryonic chicken Ang IV binding site (AT4 receptor) (Gallus gallus, UniProt F1NNE7); assay: Competition for [125I]Ang IV binding to E13 chicken chorioallantoic membranes; conditions: for Concentration at which only 50% of the [125I]Ang IV sites were competed for: E13 chicken CAM, only 50% of the sites
T2 sequence (F1NNE7 1-1024): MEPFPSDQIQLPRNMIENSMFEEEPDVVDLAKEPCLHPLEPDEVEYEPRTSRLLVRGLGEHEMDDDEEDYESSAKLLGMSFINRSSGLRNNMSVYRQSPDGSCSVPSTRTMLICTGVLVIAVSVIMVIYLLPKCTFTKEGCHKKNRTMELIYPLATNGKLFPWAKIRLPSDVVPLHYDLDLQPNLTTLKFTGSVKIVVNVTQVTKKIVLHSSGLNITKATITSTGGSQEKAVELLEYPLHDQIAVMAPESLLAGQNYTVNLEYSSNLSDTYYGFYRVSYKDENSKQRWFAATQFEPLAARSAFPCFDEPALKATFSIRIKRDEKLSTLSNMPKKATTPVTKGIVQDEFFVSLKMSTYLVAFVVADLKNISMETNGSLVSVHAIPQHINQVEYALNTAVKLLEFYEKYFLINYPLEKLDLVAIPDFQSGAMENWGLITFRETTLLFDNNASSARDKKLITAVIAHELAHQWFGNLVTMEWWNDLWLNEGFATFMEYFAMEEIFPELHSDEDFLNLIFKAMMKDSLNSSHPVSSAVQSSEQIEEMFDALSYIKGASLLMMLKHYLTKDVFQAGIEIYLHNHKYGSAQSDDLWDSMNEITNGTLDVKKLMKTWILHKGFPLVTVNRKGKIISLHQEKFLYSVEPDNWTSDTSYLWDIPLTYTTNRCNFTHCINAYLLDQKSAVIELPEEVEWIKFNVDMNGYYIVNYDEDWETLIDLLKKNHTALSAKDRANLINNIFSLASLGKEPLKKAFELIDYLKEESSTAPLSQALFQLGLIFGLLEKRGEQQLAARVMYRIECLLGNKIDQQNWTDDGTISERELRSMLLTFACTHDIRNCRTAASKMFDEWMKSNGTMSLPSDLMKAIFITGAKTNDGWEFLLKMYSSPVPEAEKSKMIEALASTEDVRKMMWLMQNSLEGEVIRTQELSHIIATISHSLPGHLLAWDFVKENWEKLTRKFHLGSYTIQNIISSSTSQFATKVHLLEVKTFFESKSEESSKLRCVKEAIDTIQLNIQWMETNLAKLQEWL

AT4 receptor [9] = conditions: literature; mediated via the AT4 receptor; cited from earlier work
[10] = 10^−8 M Ang II, test substance 1 μM
[11] = 10^−8 M Ang IV, test substance 1 μM

## CCCC[C@H](N)C(=O)N[C@@H](Cc1ccc(O)cc1)C(=O)N[C@H](C(N)=O)[C@@H](C)CC [Nle^1-Y-I-amide] (H-[Nle]-Tyr-Ile-NH2; N-terminus assumed)
[1]
  Effect on the inhibition of neurite outgrowth by Ang IV: totally reversed

## CN1[C@@H]2C[C@@H](OC(=O)[C@H](CO)c3ccccc3)C[C@H]1[C@@H]1O[C@@H]12 [scopolamine]
[2]; 70 nmol intracerebroventricularly followed by saline
  Passive avoidance performance after amnesic agent: learning and memory deficits
[3]
  Latency in finding the platform after amnesic agent: significantly increased latencies

## CC[C@H](C)[C@H](NC(=O)[C@H](Cc1ccc(O)cc1)NC(=O)[C@@H](NC(=O)[C@@H](N)CCCNC(=N)N)C(C)C)C(=O)N[C@@H](Cc1c[nH]cn1)C(=O)N1CCC[C@H]1C(=O)N[C@@H](Cc1ccccc1)C(=O)O [Ang III]
AT4 receptor [4]
  IC50: 80 nM

## LVVYPWTQRF [LVV-haemorphin-7]
AT4 receptor [5]
  IC50: 5.6 nM
AT4 receptor [6]; read-out: IC50 for competing for [125I]Ang IV binding
  IC50: 2 nM
[2]; 70 nmol scopolamine followed by 1.0 nmol peptide, intracerebroventricularly
  Effect on scopolamine-induced amnesia (latency to enter dark compartment): completely reversed
[2]; saline followed by 1.0 nmol, intracerebroventricularly
  Passive avoidance performance, substance alone: performed worse than the scopolamine-treated rats
[3]
  Effect on scopolamine-induced latency in finding the platform: totally reversed
AT4 receptor sites
  Displacement of [125I]LVV-haemorphin-7 and [125I]Ang IV binding: displaced

## Cc1cc(Cn2cnc3c2C[C@@H](C(=O)O)N(C(=O)C(c2ccccc2)c2ccccc2)C3)ccc1N(C)C [PD 123319]
AT4 receptor [5]; sheep cerebellar cortical membranes
  IC50: 46000 nM
[7]
  Affinity of the Ang IV site for the ligand: low to very low affinity
AT4 receptor [6]; at 10 μM
  Competition for [125I]Ang IV binding: inactive
[8]; at concentrations up to 10 μM
  Inhibition of [125I]Ang IV binding: inactive
AT4 receptor [4]
  Competition for [125I]Ang IV binding: inactive
[1]; [10]
  Effect on the inhibition of neurite outgrowth by Ang II: ineffective
[1]; [11]
  Effect on the inhibition of neurite outgrowth by Ang IV: no effect

## CC[C@H](C)[C@H](NC(=O)[C@H](Cc1ccc(O)cc1)NC(=O)[C@@H](N)C(C)C)C(=O)N[C@@H](Cc1cnc[nH]1)C(=O)N1CCC[C@H]1C(=O)N[C@@H](Cc1ccccc1)C(=O)O [Ang IV, NH2-Val Tyr Ile His Pro Phe-COOH]
AT4 receptor [9]
  Effect on memory in a passive avoidance task: improve memory retention and retrieval
[1]
  Concentration of maximal effect on neurite outgrowth: 10^−9 M
  Threshold concentration for inhibition of neurite outgrowth: 10^−11 M
[1]; read-out: Half maximal inhibition of neurite outgrowth
  IC50: 0.1 nM
AT4 receptor sites; 1 μM unlabelled ligand, sheep hindbrain sections
  Displacement of [125I]LVV-haemorphin-7 and [125I]Ang IV binding: displaced

## CC[C@H](C)[C@H](NC(=O)[C@@H]1CCCN1C(=O)[C@H](Cc1c[nH]cn1)NC(=O)[C@@H](NC(=O)[C@H](Cc1ccc(O)cc1)NC(=O)[C@@H](NC(=O)[C@H](CCCNC(=N)N)NC(=O)CNC)C(C)C)[C@@H](C)CC)C(=O)O [[Sar^1Ile^8]Ang II]
[7]
  Affinity of the Ang IV site for the ligand: low to very low affinity
[8]
  Concentration at which only 50% of the [125I]Ang IV sites were competed for: 10 µM
[1]
  Effect on the inhibition of neurite outgrowth by Ang II: ineffective
  Effect on the inhibition of neurite outgrowth by Ang IV: no effect

## CCCCc1nc(Cl)c(CO)n1Cc1ccc(-c2ccccc2-c2nn[nH]n2)cc1 [losartan]
[7]
  Affinity of the Ang IV site for the ligand: low to very low affinity
AT4 receptor [4]
  Competition for [125I]Ang IV binding: inactive
[1]; [10]
  Effect on the inhibition of neurite outgrowth by Ang II: ineffective
[1]; [11]
  Effect on the inhibition of neurite outgrowth by Ang IV: no effect

## CC[C@H](C)[C@H](NC(=O)[C@H](Cc1ccc(O)cc1)NC(=O)[C@@H](NC(=O)[C@H](CCCNC(=N)N)NC(=O)[C@@H](N)CC(=O)O)C(C)C)C(=O)N[C@@H](Cc1c[nH]cn1)C(=O)N1CCC[C@H]1C(=O)N[C@@H](Cc1ccccc1)C(=O)O [Ang II]
AT4 receptor [4]
  IC50: 730 nM
[1]
  Inhibition of neurite outgrowth: 25%

## CC[C@H](C)[C@H](NC(=O)[C@@H]1CCCN1C(=O)[C@H](Cc1c[nH]cn1)NC(=O)[C@H](CCCCNC(=O)[C@H](CCCNC(=N)N)NC(=O)OCc1ccccc1)NC(=O)[C@H](Cc1ccc(O)cc1)NC(=O)c1cccnc1)C(=O)O [CGP 42112] (Nicotinoyl-YK([Arg-Cbz])HPI-OH; N-terminus and C-terminus assumed)
[8]
  Concentration at which only 50% of the [125I]Ang IV sites were competed for: 0.5 µM
[1]
  Effect on the inhibition of neurite outgrowth by Ang II: ineffective
  Effect on the inhibition of neurite outgrowth by Ang IV: no effect
